Test results reported in patent publication US20170313669A1, “LACTONE COMPOUNDS AND METHODS OF MAKING AND USING SAME” (THE SCRIPPS RESEARCH INSTITUTE, priority 2015, published 2017).

Columns and labels:
[1] = test system: mouse peritoneal macrophages; assay: LPS-induced cytokine release from peritoneal macrophages; type: cell-based; conditions: pre-treatment 1 μM, 4 h; LPS 5 μg/mL, 7 h
Protocol: All PS-lipase substrate assays were performed on either 18:0-18:2 PS (Avanti Catalog #840063) or 16:0-18:1 PS (Avanti Catalog #840034). 17:1 FFA (Sigma-Aldrich #H8896) was used an internal standard for substrate assays, as well as lipidomic analysis. 2-AG-d5 (Catalog #362162) and PGE2-d9 (Catalog #10581) were purchased from Cayman Chemicals. COLO205, MCF7, K562 and HEK293T cells were purchased from ATCC. All full-length cDNA constructs coding for serine hydrolases ABHD16A, and ABHD12 were purchased from Open Biosystems (GE Healthcare), and all primers were obtained from Integrated DNA Technologies. All DNA sequencing was performed by Eton Biosciences Inc. All cytokine analysis was done using single analyte ELISA kits purchased from R&D Systems, Mouse TNF-α (Catalog # DY410), Mouse IL-6 (Catalog # DY406), and Mouse IL-1β (Catalog # DY401). All tissue culture media and supplements (RPMI 1640, DMEM, and Trypsin) were purchased from Caisson Labs, and SILAC RPMI was purchased from Thermo Scientific. […]
Peritoneal macrophages were elicited and harvested from mice according to the standard protocols available from LIPID MAPS (See http://www.lipidmaps.org/protocols/PP0000001400.pdf and http://www.lipidmaps.org/protocols/PP0000001500.pdf). […] Cell counts measured using a Bio-Rad TC10 automated cell counter, and equal numbers of cells (2×10^6) were plated in 10 cm tissue culture dishes. […]

[2] = test system: human lymphoblast cell lines (LCLs); assay: Lyso-PS content of treated LCLs; type: cell-based; conditions: 1 μM, 4 h
Protocol: ABHD16A^+/+, ABHD16A^+/+, and ABHD16A^−/− littermates of 10 weeks age were anaesthetized by isoflurane and killed by decapitation. The tissues (brains were sliced laterally into two hemispheres; entire spinal cord) were harvested, weighed, and immediately submerged in liquid N2. Tissues (one half brain or entire spinal cord) were then Dounce-homogenized in 8 mL of 2:1:1 (vol/vol/vol) CHCl3: MeOH: PBS containing the internal standard mix (1 nmol 17:1 FFA, and 100 pmol each of 17:1 lyso-PS, 17:0-20:4 PS, 17:1 lyso-PC, 17:0-20:4 PC, 17:0-20:4 PE and 50 pmol of 2-AG-d5). Homogenates were transferred to a glass vial and centrifuged at 2800×g for 10 minutes to separate the two phases. The organic phase (bottom) was removed, 200 μL of formic acid was added to acidify the aqueous homogenate (to enhance extraction of phospholipids), and CHCl3 was added to make up 8 mL volume. […]
All the metabolites analyzed in this study were quantified using the multiple reaction monitoring (MRM) methods the targeted LC/MS analysis was done using an Agilent Technologies 6460 Triple Quad LC/M with an Agilent Technologies 1290 Infinity series quaternary pump. All data was collected using the LC/MS Data Acquisition mode of the Mass Hunter Workstation Software version B.05.00 build 5.0.5027.0 SP, and analyzed using the Quantitative Analysis mode of the same software. […]

K562 cells = assay: PS lipase activity of membrane fraction after in situ treatment; conditions: 1 μM, 4 h
[3] = biological target: mouse brain membrane PS lipase activity (Mus musculus, UniProt Q9Z1Q2); type: biochemical; conditions: two-month old ABHD12+/+ and ABHD12−/− mice
mouse brain membrane PS lipase activity, sequence (Q9Z1Q2 whole entry): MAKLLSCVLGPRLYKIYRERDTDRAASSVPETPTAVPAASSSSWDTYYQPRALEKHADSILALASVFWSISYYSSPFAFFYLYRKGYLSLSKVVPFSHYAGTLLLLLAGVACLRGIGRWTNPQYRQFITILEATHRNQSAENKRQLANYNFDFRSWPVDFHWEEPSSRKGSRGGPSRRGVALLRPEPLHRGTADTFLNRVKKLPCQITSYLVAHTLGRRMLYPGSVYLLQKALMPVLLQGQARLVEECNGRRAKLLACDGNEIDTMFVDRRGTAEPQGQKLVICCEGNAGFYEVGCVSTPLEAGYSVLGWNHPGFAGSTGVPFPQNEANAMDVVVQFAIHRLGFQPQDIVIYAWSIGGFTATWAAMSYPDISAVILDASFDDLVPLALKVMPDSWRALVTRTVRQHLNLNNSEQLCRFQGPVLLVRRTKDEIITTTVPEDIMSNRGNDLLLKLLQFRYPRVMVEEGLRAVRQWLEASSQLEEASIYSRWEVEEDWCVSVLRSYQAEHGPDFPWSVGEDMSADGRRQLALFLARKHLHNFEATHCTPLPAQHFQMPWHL

CCCCCCCCCCCCCC1OC(=O)/C1=C\CCCCC(N)=O (centres unmarked) [KC01, (Z)-6-(2-oxo-4-tridecyloxetan-3-ylidene)hexanamide]
LPS-induced cytokine release [1]: significantly blunted
secreted lyso-PSs ([2]; ABHD12-null LCL): significantly lowered
cellular lyso-PSs ([2]; all LCLs): decreased cellular lyso-PSs
decrease of PS-lipase activity vs DMSO (K562 cells): > 90%
PS lipase activity of brain membrane lysates [3]: inhibited the PS lipase activity
